These are literature values, as cited in patent US20130031645A1, “METHOD FOR HEPATIC DIFFERENTIATION OF DEFINITIVE ENDODERM CELLS” (priority 2009, published 2013).

SMILES strings stand for the structures.

The test system of data set [1] is retinoic acid receptors (RARs).

For the compound `CC1=C(/C=C/C(C)=C/C=C/C(C)=C/C(=O)O)C(C)(C)CCC1` [ATRA, All-trans retinoic acid], the “binding to the RXR receptors” value with RXR receptors is “does not bind”. In data set [1], the “affinity for the three RAR subtypes” value is given as “approximately equal affinity”.
